Data published in patent US20060079497A1, “Lavendamycin analogues and methods of synthesizing and using lavendamycin analogues” (Ball State University, priority 2004, published 2006).
Where “and” joins values, the source holds several entries; their conditions need not be identical. Identical values can stand only once. Like-named read-outs stand apart in the source and are kept apart here.

Key:
[1] = biological target: T1, HIV reverse transcriptase (HIV-RT) (Human immunodeficiency virus type 1 group M subtype B, UniProt P04585); experiment: HIV-RT assay (3H-TTP incorporation, modified assay of Okada et al.); format: biochemical
T1 construct: 1 unit/mL of HIV-RT (Worthington Biochemical Corp., Freehold, N.J.); purchased Worthington Biochemical Corp., Freehold, N.J
Experimental: Briefly, the analogues were initially dissolved in either DMSO or HEPES buffer (pH 7.2) and then diluted to the appropriate concentration before addition to the assay mixtures. […] Several control wells without any inhibitors were also included on each microtiter plate. The reactions were allowed to proceed for 1 h at 37° C. […] A more detailed description of reaction conditions is provided below in the Examples. The concentration of drug which inhibited 50% of the enzyme activity (IC50) was determined by using the computer software program Calcusyn, which plots the dose-effect curves from the inhibition data and calculates the IC50 for each drug.
The assay procedure described below is adapted from Okada et al. (Okada, H.; Mukai, H.; Inouye, Y; Nakamura, S. “Biological Properties of Streptonigrin Derivatives II. Inhibition of Reverse Transcriptase Activity,” J. Antibiot., 1986, 39, 306-308). The lavendamycin analogs were initially dissolved in DMSO at a concentration of 1 mg/mL. Occasionally, mild sonication and heat were used to dissolve the less soluble compounds. The dissolved analogs were then serially diluted in distilled water to achieve concentrations in the final reaction mixture ranging from 0.5-15 μM. In addition to the lavendamycin analogs, the final reaction mixture contained 100 mM Tris-HCl (pH 8.0), 5 mM MgCl2, 5 mM dithiothreitol, 60 mM NaCl, 0.2 mM [^3H] thymidine triphosphate(5 μCi well), 4 μg/mL poly (rA)-oligo(dT)12-18 (Amersham Pharmacia Biotech, Piscataway, N.J.) and 1 unit/mL of HIV-RT (Worthington Biochemical Corp., Freehold, N.J.) in a total volume of 300 μL. For each assay, the reaction mixture containing 8× buffer, double distilled H2O, ^3HTTP, template-primer and HIV-RT was pre-mixed in a 15-mL sterile tube in quantities required for the particular experiment. After adding the enzyme, the reaction mixture was mixed and kept on ice. The inhibitors, either AZT(Moravek Biochemicals, Brea, Calif.), analogs or both were added to appropriate wells in a 24 well microtiter plate and ddH2O was added to each well to bring the volume of all test wells to 100 μL. Two hundred μL of the chilled reaction mixture was then added to each of the test wells, mixed, and incubated for 1 hr at 37° C. Several control wells with no inhibitors were included on each test plate. After stopping the reactions with 25 μL 0.1 M EDTA, triplicate samples of 15 μL from each test well were spotted on DE81 ion exchange filter paper squares (Whatman Paper, Maidstone, England). After drying, each filter was washed for 10 minutes three times with 5% TCA-NHPO4, three times with 0.6M NaCl-[…] Na Citrate, one time with ddH2O and one time with 95% ethanol. After drying the individual filter papers were added to 5 mL Scintiverse E (Fisher Scientific, Chicago, Ill.) scintillation fluid and the amount of 3H-TTP uptake measured as counts per minute on a Beckman liquid scintillation counter. […] The results were then analyzed using Calcusyn, a windows software program for dose effect analysis designed by T. -C. Chou and M. P. Hayball and published by Biosoft® (UK).

[2] = Cytotoxicity assay (MTT), human lymphocytic cell lines, pooled data; format: cell-based; details: H-9 and CEM inhibited by 50%, read-out: Mean CC50 (Human Cell Lines) ± SEM (no. of expts)
Experimental: Normal murine spleen cells were washed in HBSS, cultured at 2.5×10^6 or 5×10^6 cells per mL in RPMI 1640 (with Hepes) complete medium with 2 mM-L-glutamine, 1 mM sodium pyruvate, 0.05 mM β-mercaptoethanol, penicillin, streptomycin, and amphotericin B with 10% fetal calf serum and Concanavalin A (ConA) at 2.5 μg/mL in a 96-well microtiter plate. A range of diluted analogs were added to triplicate culture wells and the cells were incubated at 37° C. in 5% CO2. Wells containing cells, media and ConA were used as controls. Forty-eight hours post incubation, 20 μL of the vital dye MTT (3-[4,5-Dimethylthiazol-2-yl]-2,5-diphenyltetrazolium bromide; thiazolyl blue) at 5 mg/mL was added to each well and the cultures re-incubated for 4-6 hours. Following centrifugation, the supernatants were decanted and the stained cells were resuspended in 100 μL of 0.4% HCl acidified isopropanol. The optical densities of each well were read at 600 nm using a Cambridge Technologies series 700 microplate reader. The human lymphocytic cell lines CCRF-CEM (ATCC: HTB 176) and H-9 (ATCC: CCL 119) were subcultured from recently cultured cells grown in complete RPMI 1640 medium as described above but without the β-mercaptoethanol and ConA at 6.25×10^5 and 2×10^6 per mL in a 96 well culture plate. These cell numbers represented log phase and early stationary phase of the freshly cultured cells. As these cell lines rapidly reproduce without mitogenic stimulation, Con A was not used. A range of analogues or media alone was added in triplicate to the cultures and the cultures incubated, pulsed with MTT, harvested and their growth estimated as described above for the murine cultures. The CC50 or the concentration of drug which inhibited cell growth as estimated by MTT formazan production to 50% of that of untreated control cells was determined by linear interpolation for each lavendamycin analog.

[3] = Mean IC50 ± SEM (no. of expts), 50% inhibition of HIV RT activity toward 1 unit of enzyme
[4] = human lymphocytic cell lines CCRF-CEM and H-9, pooled data
[5] = 50% inhibition of HIV RT activity toward 1 unit of enzyme, read-out: Mean IC50 ± SEM (no. of expts)

**Q.** For COC(=O)c1nc(-c2ccc3c(n2)C(=O)C(NC(C)=O)=CC3=O)c2[nH]c3ccccc3c2c1C [Compound 11, 7-acetyllavendamycin methyl ester], which IC50 [1, 3] is on record?
**A.** The IC50 was 15.1 ± 5.9 µM.

**Q.** What about the CC50 at 48 h [2, 4] of the same compound?
**A.** Its CC50 at 48 h is 31 ± 2 µM.

**Q.** For CCCCOC(=O)c1cc2c([nH]c3ccccc32)c(-c2ccc3c(n2)C(=O)C(NC(=O)CCC)=CC3=O)n1 [Compound 12, 7-N-n-Butyryidemethyllavendamycin n-Butyl Ester], which IC50 [1, 5] is on record?
**A.** Its IC50 is 5.8 ± 1.5 µM.

**Q.** What about the IC50 ([1]; read-out: IC50 against HIV-RT) of the same compound?
**A.** Its IC50 is under 8 µM.

**Q.** What about the CC50 at 48 h [2] of the same compound?
**A.** Its CC50 at 48 h is 50 ± 15 µM.

**Q.** With CC(=O)NC1=CC(=O)c2ccc(-c3nc(C(N)=O)cc4c3[nH]c3ccccc34)nc2C1=O [Compound 16, 7-N-Acetyldemethyllavendamycin Amide] as the compound, how does the IC50 [1, 3] read?
**A.** The IC50 was 12.7 ± 5.2 µM.

**Q.** What about the CC50 at 48 h [2, 4] of the same compound?
**A.** Its CC50 at 48 h is 95 ± 45 µM.

**Q.** For CC(=O)NC1=CC(=O)c2ccc(-c3nc(C(=O)O)cc4c3[nH]c3ccccc34)nc2C1=O [Compound 18, 7-N-Acetyldemethyllavendamycin], which IC50 [1, 3] is on record?
**A.** Its IC50 is 13.3 ± 4.4 µM.

**Q.** And the CC50 at 48 h [2, 4]?
**A.** The CC50 at 48 h was 81 ± 35 µM.

**Q.** With CC(=O)NC1=CC(=O)c2ccc(-c3nc(C(=O)OCCOP(=O)(O)O)cc4c3[nH]c3ccccc34)nc2C1=O [Compound 19] as the compound, how does the inhibition at 15 µM ([1]; 15 μM) read?
**A.** Its inhibition at 15 µM is over 92%.

**Q.** What about the IC50 ([1]; IC50 against HIV-RT) of the same compound?
**A.** Its IC50 is < 8 µM and 3 µM.

**Q.** What about the CC50 at 48 h [2, 4] of the same compound?
**A.** The CC50 at 48 h was 27 ± 3 µM.

**Q.** What does the source list for CCCCCCCCOC(=O)c1cc2c([nH]c3ccccc32)c(-c2ccc3c(n2)C(=O)C(N)=CC3=O)n1 [Compound 20, Demethyllavendamycin n-Octyl Ester]?
**A.** IC50 [1, 5]: 7.1 ± 2.7 µM; IC50 ([1]; read-out: IC50 against HIV-RT): < 8 µM; CC50 at 48 h [2]: 47 ± 14 µM
